# Source: US6492427B2, “Methods for treating multiple sclerosis” (priority 1998, dated 2002)
# Entries after “also recorded” stand apart in the source; their conditions may differ. *1 amine or outer side, *2 acyl side, *3 side chain or, on linkers, in order; H or OH if unused. Where a SMILES comes first, the peptide text is derived from it. Bridges are numbered along the chain shown (N, C = ends). Roman numbers before positions name the chains, in order. [ ]: non-standard residue; d: D form. Actinocin(9to1) = Cc1c2oc3c(C)ccc(C(=O)[*:1])c3nc-2c(C(=O)[*:2])c(N)c1=O; NMeV = CN[C@H](C(=O)O)C(C)C; Sar = CNCC(=O)O
# Legend:
# Format in all cases: cell-based, rat
# [1] = tested on: mitochondrial membrane potential (ΔψM) of oligodendroglial cells; experiment: CMTMR estimation of mitochondrial membrane potential by confocal microscopy; design: ΔΨM (18 h): key to the marks not given beside the values; settings: for capacity of (−)-deprenyl and (−)-desmethyldeprenyl to maintain ΔψM in OL mitochondria: 10^−5 M with 10^−9 M (−)-deprenyl or (−)-desmethyldeprenyl in BM; for increases in ΔψM induced by (−)-deprenyl on OL mitochondria: proadifen 10 μM, metyapone 50 μM or piperonyl butoxide 100 μM with 10^−9 M (−)-deprenyl in BM
# Description: The ΔψM was assessed by the addition of a lipophilic, potentiometric dye, chloromethyl-tetramethylrhodamine methyl ester (CMTMR, Mitotracker Orange™ Molecular Probes, Eugene, Oreg.). The CMTMR dye reacts with the thiol groups on proteins and peptides to form aldehyde fixable conjugates. Entry of the negatively charged mitochondrial matrix compartment is proportional to the difference in the membrane potential. Therefore, the CMTMR fluorescence labels the mitochondrial membrane potential generated due to the negativity difference between the mitochondrial matrix and the outside of the mitochondria. Upon cell fixation, CMTMR remains in the mitochondria and is not washed out unlike other mitochondrial potentiometric dyes like rhodamine123.
# Oligodendrocytes at 16 DIV were placed in trophically deprived BM for 18 h or treated with BM-D9 or BM-Ds9. […] The cells were incubated in CMTMR at 37° C. for 15 min. The cells were then fixed with 4% cold paraformaldehyde on ice for 30 min and washed twice with 0.1M PBS. Consequently, the coverslips were mounted on glass slides with Aquamount (Gurr, England).
# Individual mitochondria labeled with CMTMR were resolved by confocal microscopy. A Leica true confocal scanning (TCS) 4D microscope coupled to an argon-krypton laser (Omnichrome, USA) was used for cell imaging. A pinhole size of 20 with an excitation filter wavelength of 568 nm and an emission filter wavelength of 590 nm was used to image the CMTMR labeled mitochondria. Each field of the coverslip was imaged using an oil-immersion, 100 X, 1.3 N.A. objective at 512 by 512 by 8 bits per pixel resolution, background offset of −1 and line averaged 32 times in bi-directional line scan mode. Care was taken not to exceed the dynamic range of the gray value display. The confocal images obtained were saved on an optical drive in a tagged image file format (TIFF).
# Fluorescence intensity of individual mitochondria was measured using the Metamorph™ program. Metamorph™ compiles measurements of objects in a 8-bit image ranging from gray values 0 (background) and 255. In order to obtain fluorescence intensity measures, a rectangular region tool of 2×2 pixels was used to measure two randomly selected areas within each mitochondrion. A total of ten mitochondria obtained equally from all the regions of each cell were measured within each image. About 20 images were analyzed for each treatment condition thereby giving a sum of about 400 mitochondrial fluorescence intensity measures. The raw values were then further graphed and analyzed with the Microcal Origin 4.1 program. Frequency count was performed on the data, which classified the data in ordered bins. A frequency distribution was obtained with lower bin value set at 0 and higher bin value set at 260.
# [2] = tested on: oligodendroglial cells; experiment: Nuclear integrity assay: counts of intact nuclei (Zap-oglobin lysis) after insulin and IGF-I withdrawal; settings: for counts of intact nuclei compared to BM: alone in BM at 10^−5, 10^−7 and 10^−9 M; for numbers of intact nuclei for IGF-I and insulin withdrawn cells: alone in BM, actinomycin 1, 2.5, 5 μg/ml, cycloheximide 1, 5, 10, 50 μg/ml
# Description: In order to examine insulin and IGF-I dependent survival of the cells of the oligodendroglial lineage, cells were trophically deprived for a period of 24 hours at 16 DIV.
# Cells were trophically withdrawn by replacing the media with a serum free, chemically-defined base media (BM) lacking insulin and IGF-I (Bottenstein et al., 1988). The base media consisited of DMEM supplemented with penicillin (50 IU/ml); streptomycin (50 μg/ml); 1 mM sodium pyruvate; 50 μg/ml transferrin; 0.005 μg/ml sodium selenite; 16 μg/ml putrescine; 0.006 μg/ml progesterone and 0.1 mg/ml bovine serum albumin. All the cells were washed with BM twice before exposing them to individual treatment conditions. Control cells were washed and placed in BM supplemented with 2.5 ng/ml IGF-I and 5 μg/ml insulin to form the insulin media (IM).
# Cell survival in the cultures was assessed according to the method of (Soto and Sonnenschein, 1985). After washing and treatment in BM, BM-D9, IM and IM-D9 for 24 h, cells were harvested, centrifuged at 500 rpm for 5 min and the supernatant removed. Pelleted cells were then lysed with 200 μl of 10% Zap-oglobin (Coulter Electronics, FL, USA). The lysing agent is a detergent containing solution that lyses the plasma membrane but leaves the nuclei intact. The lysed solution was collected and vortexed. A small volume (10 μl) of the solution was removed and intact nuclei were counted using a haemocytometer. To be counted, nuclei had to show a completely intact smooth outer border. Counts of intact nuclei were pooled for three or four experiments (a total of 15-20 wells were used for each treatment condition). each treatment condition).
# OLs at 16 DIV were exposed to the different drug treatment conditions for 24 h, following which, the nuclear integrity assay was performed. On the day of the treatment, the cells growing in Nunc 24 well plates were washed twice with base media. Each treatment well received 50 μl of the appropriate drug solution and the total volume in the well was made up to 500 μl with either BM or IM.
# Nuclear counts were obtained from quadruplicate wells per treatment condition and the experiment was repeated twice. OLs were exposed to the following treatment conditions: 1) IM, 2) BM, 3) BM-D9, 4) (−)-Desmethyldeprenyl (BM-Ds9), 5) IM-D9 and 6) IM +10^−9 M (−)-Desmethyldeprenyl (IM-Ds9).
# The treatment conditions with the three general cytochrome P450 blockers were: 1) BM+Proadifen (2.5, 10, 25 μM), 2) BM-D9+Proadifen (2.5, 10, 25 μM), 3) BM-Ds9+Proadifen (2.5, 10, 25 μM), 4) BM+Metapyrone (50 μM), 5) BM-D9+Metapyrone (50 μM), 6) BM-Ds9+Metapyrone (50 μM), 7) BM+Piperonyl butoxide (100 μM), 5) BM-D9+Piperonyl butoxide (100 μM), 6) BM-Ds9+Piperonyl butoxide (100 μM).
# OLs at 16 DIV were washed twice with base media and exposed either to actinomycin, a transcriptional blocker or cycloheximide, a translational blocker for 24 h. […] Actinomycin and cycloheximide were either used with base media alone or in combination with 10^−9 M (−)-desmethyldeprenyl. Each treatment well received 50 μl of the drug solution and the total volume of the well was made up to 500 μl with base media.
# Counts of intact nuclei, obtained from quadruplicate wells per treatment condition were used to quantitate the effects of the transcriptional and translational blockers. Each experiment was repeated twice for experimental density series-II.
# [3] = tested on: MBP, PLP, GC and CNPase-I; experiment: Western blot of PROL and OL marker proteins; settings: BM + 10^−9 M, 18 h
smiles,measurement,setting,value
CN[C@@H](C)Cc1ccccc1 [(−)-methamphetamine],capacity of (−)-deprenyl and (−)-desmethyldeprenyl to maintain ΔψM in OL mitochondria,[1]; 18 h,reduce the capacity of (−)-deprenyl and (−)-desmethyldeprenyl to maintain ΔψM
same,increase in numbers of intact nuclei induced by (−)-deprenyl,"[2]; 10^−5, 10^−7, 10^−9 M in combination with 10^−9 M (−)-deprenyl in BM, 24 h",significantly reduced the increase in numbers of intact nuclei induced by (−)-deprenyl in a graded concentration dependent manner
same,counts of intact nuclei compared to BM,[2]; 24 h,did alter the counts of intact nuclei
"CC(C)(C(=O)c1cccnc1)c1cccnc1 [metapyrone, 2-methyl-1,2-di(3-pyridyl)-1-propanone]",increases in ΔψM induced by (−)-deprenyl on OL mitochondria,[1]; 18 h,blocked the increases in ΔψM induced by (−)-deprenyl
"CC(N)Cc1ccccc1 (single isomer, unassigned; (-)) [(−)-amphetamine]",capacity of (−)-deprenyl and (−)-desmethyldeprenyl to maintain ΔψM in OL mitochondria,[1]; 18 h,reduce the capacity of (−)-deprenyl and (−)-desmethyldeprenyl to maintain ΔψM
same,capacity of (−)-deprenyl to increase survival of oligodendroglial cells,"[2]; 10^−3, 10^−5, 10^−7, 10^−9 M in combination with 10^−9 M (−)-deprenyl in BM, 24 h",markedly reduced the capacity of (−)-deprenyl to increase the survival
same,capacity of 10^−9 M (−)-desmethyldeprenyl to increase survival of oligodendroglial cells,"[2]; 10^−5 M with 10^−9 M (−)-desmethyldeprenyl in BM, 24 h",completely eliminated the capacity of 10^−9 M (−)-desmethyldeprenyl to increase the survival
same,counts of intact nuclei compared to BM,[2]; 24 h,did alter the counts of intact nuclei
C[C@@H]1C[C@@H]([C@H](O)CC2CC(=O)NC(=O)C2)C(=O)[C@@H](C)C1 [cycloheximide],numbers of intact nuclei for IGF-I and insulin withdrawn cells,[2]; 24 h,Neither agent altered the numbers of intact nuclei
"Cc1c2oc3c(C)ccc(C(=O)N[C@@H]4C(=O)N[C@H](C(C)C)C(=O)N5CCC[C@H]5C(=O)N(C)CC(=O)N(C)[C@@H](C(C)C)C(=O)O[C@@H]4C)c3nc-2c(C(=O)N[C@@H]2C(=O)N[C@H](C(C)C)C(=O)N3CCC[C@H]3C(=O)N(C)CC(=O)N(C)[C@@H](C(C)C)C(=O)O[C@@H]2C)c(N)c1=O [actinomycin] (I: T[dV]P[Sar][NMeV] / II: T[dV]P[Sar][NMeV]; ester I:1-I:C, II:1-II:C; linker I:N-II:N via Actinocin(9to1))",numbers of intact nuclei for IGF-I and insulin withdrawn cells,[2]; 24 h,Neither agent altered the numbers of intact nuclei
CCCC(C(=O)OCCN(CC)CC)(c1ccccc1)c1ccccc1 [proadifen],increases in ΔψM induced by (−)-deprenyl on OL mitochondria,[1]; 18 h,blocked the increases in ΔψM induced by (−)-deprenyl
same,number of intact nuclei when compared to IM,"[2]; proadifen 2.5 μM with 10^−9 M (−)-deprenyl in BM, 24 h",144%
same,number of intact nuclei when compared to IM,"[2]; proadifen 10 μM with 10^−9 M (−)-deprenyl in BM, 24 h",109%
same,number of intact nuclei when compared to IM,"[2]; proadifen 25 μM with 10^−9 M (−)-deprenyl in BM, 24 h",91%
same,intact nuclei values for BM only,"[2]; proadifen 2.5, 10, 25 μM alone in BM, 24 h",did alter the values for BM only
same,increase in intact nuclei induced by 10^−9 M (−)-desmethyldeprenyl,"[2]; proadifen 2.5, 10, 25 μM with 10^−9 M (−)-desmethyldeprenyl in BM, 24 h",did not reduce the increase in intact nuclei
C#CCN[C@H](C)Cc1ccccc1 [(−)-desmethyldeprenyl],"band densities for MBP, CNP-ase I and PLP compared to IM",[3],exceed those for IM
same,"immunodensity of marker proteins (MBP, PLP, GC, CNPase-I) compared to BM",[3],marked increase in immunodensity compared to BM
same,"mitochondrial CMTMR fluorescence distributions (ΔψM) in ASTs, PROLs and OLs","[1]; BM + 10^−9 M, 18 h",not significantly different to those found for IM; also recorded: prevented the decrease in ΔψM
same,ΔΨM (18 h),"[1]; OL, relative to control (IM)",++++
same,increase in counts of intact nuclei compared to those for BM,"[2]; BM + 10^−9 M, 24 h, metabolite experiments (FIG. 11)",197%
same,numbers of intact nuclei relative to IM,"[2]; IM + 10^−9 M, 24 h, metabolite experiments (FIG. 11)",103%
same,Survival (24 h),"[2]; OL cell survival, relative to control (IM)",++++
"C#CCN(C)C(C)Cc1ccccc1 (single isomer, unassigned; (+)) [(+)-deprenyl]","concentration-survival relationship, numbers of intact nuclei","[2]; BM with 10^−5, 10^−7 and 10^−9 M, 24 h",did not alter the numbers of intact nuclei from the values found for BM
